Assay: trans-anethole and vanillin in compositions of modafinil (Example 3)
Type: physicochemical
Method: 200 mg of modafinil were weighted in two test tubes (A and B). 2 mL of benzyl alcohol were added to test tube A and 200 mg of vanillin, 2 mL of anethole and 2 mL of benzyl alcohol were added to test tube B. The test tubes were stirred and heated to 60° C. Further, the tubes were cooled at room temperature.

## NC(=O)C[S+]([O-])C(c1ccccc1)c1ccccc1 (centres unmarked) [modafinil]
Tube A: 200 mg in 2 mL benzyl alcohol
  crystallization on cooling at room temperature: promptly crystallized
Tube B: 200 mg vanillin, 2 mL anethole and 2 mL benzyl alcohol, 12 hours after cooling
  crystallization after cooling at room temperature: no crystals were noted

Reference: patent US20080064675A1, “Use of Aromatic flavoring agents with high melting point as solubilizing agents” (priority 2005, published 2008)
